Among the data in patent US20240109917A1 (ACTELION PHARMACEUTICALS LTD, priority 2020, published 2024) are IC50 values, retold here.

In assay [1] the target is PDGFRβ (Rattus norvegicus (Rat), UniProt Q05030). The assay is described as follows: PDGFRβ Cellular Assay (PDGFRb P-Y751 HTRF in A10 cells stimulated with PDGF-BB). The assay is classed as cell-based. In short, it runs like this:
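Rat A10 cells, plated overnight, were treated with compound for 3 hours, then stimulated with PDGF-BB (working stock 100 ng/mL in 10% FBS medium). After lysis, PDGFRβ P-Y751 was detected by HTRF.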
(In general: TR-FRET usually uses a lanthanide donor and a delayed reading to cut background.)

In assay [2] the target is His6-TEV-PDGFRβ (557-1016) (Homo sapiens (Human), UniProt P09619). The assay can be described thus: PDGFRβ HTRF Assay. The assay is classed as biochemical. The note with it: read-out: PDGFR HTRF IC50. In short, it runs like this:
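Human PDGFRβ (557-1016) pre-incubated with compound for 30 min at RT in pH 7.5 HEPES/MgCl2/EGTA/Brij-35/DTT buffer. Reaction started with ATP and TK-biotin peptide, run 3 h at RT, then quenched with EDTA-containing Eu-cryptate antibody/streptavidin-XL665. HTRF 665/620 nm ratio read after 60 min; percent inhibition relative to DMSO and 10 μM imatinib controls.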

For assay [3], the target named is Tb-labeled inactive PDGFRβ (Homo sapiens (Human), UniProt P09619). The assay is described as follows: PDGFRβ LanthaScreen Assay. Type of assay: binding. As to conditions: read-out: PDGFR Lantha IC50.
Tb-labeled inactive PDGFRβ, sequence (P09619 33-1106): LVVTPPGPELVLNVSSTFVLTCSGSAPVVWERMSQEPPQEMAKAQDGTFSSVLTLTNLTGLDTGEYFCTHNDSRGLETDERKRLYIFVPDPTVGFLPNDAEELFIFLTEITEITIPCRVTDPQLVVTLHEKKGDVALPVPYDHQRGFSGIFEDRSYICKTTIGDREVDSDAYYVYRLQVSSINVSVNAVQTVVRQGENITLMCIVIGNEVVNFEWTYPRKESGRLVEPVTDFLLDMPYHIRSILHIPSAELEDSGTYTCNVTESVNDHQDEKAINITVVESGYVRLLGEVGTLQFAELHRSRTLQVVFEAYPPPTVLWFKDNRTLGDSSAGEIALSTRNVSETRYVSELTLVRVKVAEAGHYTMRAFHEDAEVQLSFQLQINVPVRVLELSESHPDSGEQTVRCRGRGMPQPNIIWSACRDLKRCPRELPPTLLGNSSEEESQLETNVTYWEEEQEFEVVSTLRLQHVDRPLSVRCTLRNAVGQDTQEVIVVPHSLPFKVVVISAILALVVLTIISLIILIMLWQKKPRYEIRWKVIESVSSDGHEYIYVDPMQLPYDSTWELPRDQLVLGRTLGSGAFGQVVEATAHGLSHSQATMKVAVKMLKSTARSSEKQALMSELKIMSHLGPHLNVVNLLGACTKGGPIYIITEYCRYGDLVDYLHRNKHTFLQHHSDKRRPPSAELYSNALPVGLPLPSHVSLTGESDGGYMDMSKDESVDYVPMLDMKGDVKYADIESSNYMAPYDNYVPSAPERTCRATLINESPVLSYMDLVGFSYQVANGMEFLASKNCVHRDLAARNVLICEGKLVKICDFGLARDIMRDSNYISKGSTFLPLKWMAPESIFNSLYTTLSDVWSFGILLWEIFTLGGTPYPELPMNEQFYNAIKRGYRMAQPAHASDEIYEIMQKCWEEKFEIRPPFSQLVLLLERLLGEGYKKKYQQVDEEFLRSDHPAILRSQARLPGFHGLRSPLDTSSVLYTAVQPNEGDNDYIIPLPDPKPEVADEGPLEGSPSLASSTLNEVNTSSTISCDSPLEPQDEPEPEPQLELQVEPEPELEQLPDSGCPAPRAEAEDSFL

Like-named read-outs stand apart in the source and are kept apart here. Some results are limits rather than exact numbers.

His6-TEV-PDGFRβ (557-1016), sequence (P09619 557-1016): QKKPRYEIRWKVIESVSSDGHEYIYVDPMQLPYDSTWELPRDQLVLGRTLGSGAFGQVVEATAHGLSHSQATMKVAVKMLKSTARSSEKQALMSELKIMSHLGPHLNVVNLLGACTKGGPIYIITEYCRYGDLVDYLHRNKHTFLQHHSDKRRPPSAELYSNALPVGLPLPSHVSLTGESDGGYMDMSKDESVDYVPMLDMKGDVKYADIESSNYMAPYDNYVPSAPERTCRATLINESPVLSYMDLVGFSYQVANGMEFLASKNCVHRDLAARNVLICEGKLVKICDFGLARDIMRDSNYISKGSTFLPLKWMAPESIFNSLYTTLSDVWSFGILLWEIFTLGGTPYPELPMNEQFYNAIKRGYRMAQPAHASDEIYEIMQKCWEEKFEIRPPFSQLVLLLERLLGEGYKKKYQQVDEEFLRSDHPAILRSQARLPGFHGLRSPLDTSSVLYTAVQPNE
PDGFRβ, sequence (Q05030 32-1097): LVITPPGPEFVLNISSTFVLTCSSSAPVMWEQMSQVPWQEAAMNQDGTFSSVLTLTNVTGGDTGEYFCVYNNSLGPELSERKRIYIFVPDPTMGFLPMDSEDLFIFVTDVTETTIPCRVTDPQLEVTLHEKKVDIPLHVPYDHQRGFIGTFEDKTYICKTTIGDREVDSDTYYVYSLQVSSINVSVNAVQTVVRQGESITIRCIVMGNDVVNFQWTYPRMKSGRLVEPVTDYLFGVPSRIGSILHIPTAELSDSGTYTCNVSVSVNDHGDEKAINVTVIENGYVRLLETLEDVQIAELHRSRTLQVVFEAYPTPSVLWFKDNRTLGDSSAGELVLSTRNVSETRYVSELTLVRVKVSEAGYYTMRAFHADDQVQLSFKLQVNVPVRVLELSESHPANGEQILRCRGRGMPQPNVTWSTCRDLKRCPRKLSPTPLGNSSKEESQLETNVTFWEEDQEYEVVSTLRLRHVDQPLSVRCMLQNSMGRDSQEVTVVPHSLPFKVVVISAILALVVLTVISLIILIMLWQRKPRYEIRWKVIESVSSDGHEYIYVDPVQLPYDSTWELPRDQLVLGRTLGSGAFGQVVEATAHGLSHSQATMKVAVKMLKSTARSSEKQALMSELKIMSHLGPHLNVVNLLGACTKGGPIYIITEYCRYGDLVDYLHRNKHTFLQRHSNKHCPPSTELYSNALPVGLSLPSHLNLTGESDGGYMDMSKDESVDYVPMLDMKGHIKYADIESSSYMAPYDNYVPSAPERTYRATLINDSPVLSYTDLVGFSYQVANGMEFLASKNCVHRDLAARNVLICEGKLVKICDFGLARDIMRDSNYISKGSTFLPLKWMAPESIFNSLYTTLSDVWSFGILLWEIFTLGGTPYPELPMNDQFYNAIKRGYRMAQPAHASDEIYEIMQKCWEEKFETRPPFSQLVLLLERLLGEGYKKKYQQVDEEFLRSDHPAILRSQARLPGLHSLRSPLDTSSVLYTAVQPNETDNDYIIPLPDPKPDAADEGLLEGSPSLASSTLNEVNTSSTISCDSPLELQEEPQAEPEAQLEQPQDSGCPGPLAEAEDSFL

One may read the IC50 as the concentration that inhibits the measured activity by half. Take `COCCN(CCNC(=O)c1cnc(C)c(NC(=O)c2cnn3cc(-c4cnn(C)c4)sc23)c1)C(C)C` [Example 127, N-(5-((2-(isopropyl(2-methoxyethyl)amino)ethyl)carbamoyl)-2-methylpyridin-3-yl)-2-(1-methyl-1H-pyrazol-4-yl)pyrazolo[5,1-b]thiazole-7-carboxamide]: the values for the IC50 in assay [1] (PDGFR Cellular IC50), in assay [2] and in assay [3] were 16.2 nM, 0.6 nM and 6 nM, respectively.
Turning to `Cc1ncc(C(=O)NCCN2CCC(C)(C)C2)cc1NC(=O)c1cnn2cc(-c3ccncc3)sc12` [Example 156, N-(5-((2-(3,3-dimethylpyrrolidin-1-yl)ethyl)carbamoyl)-2-methylpyridin-3-yl)-2-(pyridin-4-yl)pyrazolo[5,1-b]thiazole-7-carboxamide], the IC50 in assay [1] (read-out: PDGFR Cellular IC50) came out at 26.2 nM; in assay [2], 0.4 nM; in assay [3], 9.8 nM.
For `Cc1ncc(C(=O)NCCN2CC3CCC2CC3)cc1NC(=O)c1cnn2cc(-c3ccncc3)sc12` [Example 148, N-(5-((2-(2-azabicyclo[2.2.2]octan-2-yl)ethyl)carbamoyl)-2-methylpyridin-3-yl)-2-(pyridin-4-yl)pyrazolo[5,1-b]thiazole-7-carboxamide], the IC50 in assay [1] (read-out: PDGFR Cellular IC50) is 28.9 nM; in assay [2], 0.3 nM; in assay [3] it was 4.2 nM.
Take `Cc1ncc(NC(=O)CCN2CCC3(CC2)CC3)cc1NC(=O)c1cnn2cc(-c3cnn(C)c3)sc12` [Example 97, N-(5-(3-(6-azaspiro[2.5]octan-6-yl)propanamido)-2-methylpyridin-3-yl)-2-(1-methyl-1H-pyrazol-4-yl)pyrazolo[5,1-b]thiazole-7-carboxamide]: the IC50 in assay [1] (read-out: PDGFR Cellular IC50) stood at 8.4 nM; in assay [2], 0.4 nM; in assay [3], 6.4 nM.
Consider `Cc1ncc(C(=O)NCCN2CC3CCC2CC3)cc1NC(=O)c1cnn2cc(-c3cnn(CS(C)(=O)=O)c3)sc12` [Example 143, N-(5-((2-(2-azabicyclo[2.2.2]octan-2-yl)ethyl)carbamoyl)-2-methylpyridin-3-yl)-2-(1-((methylsulfonyl)methyl)-1H-pyrazol-4-yl)pyrazolo[5,1-b]thiazole-7-carboxamide], for which the IC50 in assay [1] (read-out: PDGFR Cellular IC50) was determined as 998 nM; in assay [2], 0.6 nM; in assay [3] it was 5.3 nM.
With `Cc1ncc(C(=O)NCCN2CCC3(CC3)C2)cc1NC(=O)c1cnn2cc(-c3cccnc3)sc12` [Example 159, N-(5-((2-(5-azaspiro[2.4]heptan-5-yl)ethyl)carbamoyl)-2-methylpyridin-3-yl)-2-(pyridin-3-yl)pyrazolo[5,1-b]thiazole-7-carboxamide], the figures for the IC50 in assay [1] (read-out: PDGFR Cellular IC50), in assay [2] and in assay [3] were 86.8 nM, 0.7 nM and 21.6 nM, respectively.
For the compound `Cc1ncc(NC(=O)NCC2CCN(C)CC2)cc1NC(=O)c1cnn2cc(-c3cnn(C)c3)sc12` [Example 107, 2-(1-methyl-1H-pyrazol-4-yl)-N-(2-methyl-5-(3-((1-methylpiperidin-4-yl)methyl)ureido)pyridin-3-yl)pyrazolo[5,1-b]thiazole-7-carboxamide], the IC50 in assay [1] (read-out: PDGFR Cellular IC50) is above 3000 nM; in assay [2] it was 13.2 nM; in assay [3] it was 582 nM.
On to `Cc1ncc(C(=O)NCCN2CCC(F)(F)CC2)cc1NC(=O)c1cnn2cc(-c3cnn(C)c3)sc12` [Example 119, N-(5-((2-(4,4-difluoropiperidin-1-yl)ethyl)carbamoyl)-2-methylpyridin-3-yl)-2-(1-methyl-1H-pyrazol-4-yl)pyrazolo[5,1-b]thiazole-7-carboxamide], for which the IC50 in assay [1] (read-out: PDGFR Cellular IC50) came out at 4.9 nM; in assay [2] it was 0.3 nM; in assay [3] it was 2 nM.
For the compound `Cc1ncc(C(=O)NCCN2CC3(CCC3)C2)cc1NC(=O)c1cnn2cc(-c3cnn(C)c3)sc12` [Example 124, N-(5-((2-(2-azaspiro[3.3]heptan-2-yl)ethyl)carbamoyl)-2-methylpyridin-3-yl)-2-(1-methyl-1H-pyrazol-4-yl)pyrazolo[5,1-b]thiazole-7-carboxamide], the IC50 in assay [1] (read-out: PDGFR Cellular IC50) was 134 nM; in assay [2] it was 0.6 nM; in assay [3], 19.6 nM.
The like results for `COCCN(CCNC(=O)c1cnc(C)c(NC(=O)c2cnn3cc(-c4cnn(C)c4)sc23)c1)C1CCC1` [Example 115, N-(5-((2-(cyclobutyl(2-methoxyethyl)amino)ethyl)carbamoyl)-2-methylpyridin-3-yl)-2-(1-methyl-1H-pyrazol-4-yl)pyrazolo[5,1-b]thiazole-7-carboxamide] were, in that order, 13.3 nM, 0.4 nM and 4.7 nM.
With `Cc1ncc(C(=O)NCCN2CCOCC23CCC3)cc1NC(=O)c1cnn2cc(-c3cnn(C)c3)sc12` [Example 117, N-(5-((2-(8-oxa-5-azaspiro[3.5]nonan-5-yl)ethyl)carbamoyl)-2-methylpyridin-3-yl)-2-(1-methyl-1H-pyrazol-4-yl)pyrazolo[5,1-b]thiazole-7-carboxamide], the IC50 in assay [1] (read-out: PDGFR Cellular IC50) was found to be 5.6 nM; in assay [2], 0.4 nM; in assay [3], 2.3 nM.
The matching figures for `COCCn1cc(-c2cn3ncc(C(=O)Nc4cc(C(=O)NCCN5CCC(F)(F)C5)cnc4C)c3s2)cn1` [Example 167, N-(5-((2-(3,3-difluoropyrrolidin-1-yl)ethyl)carbamoyl)-2-methylpyridin-3-yl)-2-(1-(2-methoxyethyl)-1H-pyrazol-4-yl)pyrazolo[5,1-b]thiazole-7-carboxamide]: 24.7 nM, 0.5 nM and 4.2 nM.
The like results for `COCCn1cc(-c2cn3ncc(C(=O)Nc4cc(NC(=O)CCN5CCC56CCC6)cnc4C)c3s2)cn1` [Example 95, N-(5-(3-(1-azaspiro[3.3]heptan-1-yl)propanamido)-2-methylpyridin-3-yl)-2-(1-(2-methoxyethyl)-1H-pyrazol-4-yl)pyrazolo[5,1-b]thiazole-7-carboxamide] were, in that order, 17.9 nM, 0.4 nM and 5.1 nM.
Regarding `Cc1ncc(C(=O)NCCN2CCC3(CC3)C2)cc1NC(=O)c1cnn2cc(-c3cn(C)nc3C)sc12` [Example 177, N-(5-((2-(5-azaspiro[2.4]heptan-5-yl)ethyl)carbamoyl)-2-methylpyridin-3-yl)-2-(1,3-dimethyl-1H-pyrazol-4-yl)pyrazolo[5,1-b]thiazole-7-carboxamide], the IC50 in assay [1] (read-out: PDGFR Cellular IC50) came out at 18.2 nM; in assay [2] it was 0.3 nM; in assay [3], 2.6 nM.
The matching figures for `Cc1ncc(C(=O)NCCN2CC3COCC3C2)cc1NC(=O)c1cnn2cc(-c3cnn(C)c3)sc12` (stereo not drawn) [Example 112, 2-(1-methyl-1H-pyrazol-4-yl)-N-(2-methyl-5-((2-(tetrahydro-1H-furo[3,4-c]pyrrol-5 (3H)-yl)ethyl)carbamoyl)pyridin-3-yl)pyrazolo[5,1-b]thiazole-7-carboxamide]: 159 nM, 0.5 nM and 12.6 nM.
Consider `Cc1ncc(C(=O)NCCN2CC3CCC2CC3)cc1NC(=O)c1cnn2cc(-c3cnn(CC#N)c3)sc12` [Example 151, N-(5-((2-(2-azabicyclo[2.2.2]octan-2-yl)ethyl)carbamoyl)-2-methylpyridin-3-yl)-2-(1-(cyanomethyl)-1H-pyrazol-4-yl)pyrazolo[5,1-b]thiazole-7-carboxamide], for which the IC50 worked out at 240 nM in assay [1] (read-out: PDGFR Cellular IC50), 0.3 nM in assay [2] and 2.8 nM in assay [3].
